Results published in patent US20240218022A1, “ANTI-VISTA MACROCYCLIC PEPTIDES AND COMPOSITIONS” (BRISTOL-MYERS SQUIBB COMPANY, priority 2022, published 2024).
Starred links: 1 amine or outer side, 2 acyl side, 3 side chain; linkers in the order of their positions; H or OH if unused. Positions of bridges follow the written chain, without caps; N, C: chain ends. Non-standard residues stand in square brackets, D forms with d. Residues, ends and D or L forms follow the SMILES beside them. ξ: configuration not given here. γGlu = O=C(O)[C@H](CCC(=O)[*:2])N[*:1]; NMeIle(3ξ) = CCC(C)[C@H](NC)C(=O)O; Tic = O=C(O)[C@@H]1Cc2ccccc2CN1; Ahp(2) = CCCCC[C@H](N)C(=O)O; NMeNle = CCCC[C@H](NC)C(=O)O; Tle = CC(C)(C)[C@H](N)C(=O)O; NMeS = CN[C@@H](CO)C(=O)O; NHexGly = CCCCCCNCC(=O)O; Nle = CCCC[C@H](N)C(=O)O; Aun = NCCCCCCCCCCC(=O)O; AEEA = NCCOCCOCC(=O)O

Biological target: T1, mouse VISTA (mVISTA) (Mus musculus, UniProt Q9D659)
T1 construct: expressed in transfected cells; host or cells: Human embryonic kidney 293T cells
T1 sequence (Q9D659 33-308): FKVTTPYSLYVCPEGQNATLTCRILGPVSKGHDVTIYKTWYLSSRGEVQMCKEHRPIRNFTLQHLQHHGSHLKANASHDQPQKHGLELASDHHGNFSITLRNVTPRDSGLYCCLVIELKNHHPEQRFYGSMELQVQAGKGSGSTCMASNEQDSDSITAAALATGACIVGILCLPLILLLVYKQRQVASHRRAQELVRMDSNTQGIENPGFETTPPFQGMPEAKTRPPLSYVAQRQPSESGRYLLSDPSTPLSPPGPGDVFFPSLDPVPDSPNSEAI
Assay: Cell-Based Binding High-Content Assay For mVISTA (HC CBA mVISTA)
Conditions: read-out: HC CBA mVISTA IC50
In short: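 mVISTA-293T, 4,000 cells/well; cpd ± washout step; biotin-peptide 2 nM final, 30 min RT; SA-Alexa 647 30 min; formaldehyde/Hoechst fix; HCS imaging; 4PL IC50.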

Structure (SMILES)	IC50 [nM]
CCCCCCN1CC(=O)N[C@@H](Cc2ccc(O)cc2)C(=O)N[C@@H](CC(C)C)C(=O)N[C@@H](CC(N)=O)C(=O)N[C@@H](CCCNC(=N)N)C(=O)N[C@@H](CC(C)C)C(=O)N[C@@H](CCCCC)C(=O)N2CCC[C@H]2C(=O)N[C@@H](C(C)(C)C)C(=O)N[C@@H](CC(=O)O)C(=O)N[C@H](C(=O)NCCOCCOCC(=O)N[C@@H](CCC(=O)NCCOCCOCC(=O)NCCCCCCCCCCC(=O)O)C(=O)O)CSCC(=O)N[C@@H](Cc2ccccc2)C(=O)N[C@@H](Cc2ccc(O)cc2)C(=O)N[C@@H](CC(=O)O)C1=O [compound 2232] ({CH2CO}-FYD[NHexGly]YLNRL[Ahp(2)]P[Tle]DC[AEEA][γGlu][AEEA][Aun]-OH; thioether N-14)	13
CCCCCCN1CC(=O)N[C@@H](Cc2ccc(O)cc2)C(=O)N[C@@H](CCCC)C(=O)N[C@@H](CC(N)=O)C(=O)N[C@@H](CCCNC(=N)N)C(=O)N[C@@H](CC(C)C)C(=O)N[C@@H](CCCCC)C(=O)N2CCC[C@H]2C(=O)N[C@@H](C(C)(C)C)C(=O)N[C@@H](CC(=O)O)C(=O)N[C@H](C(=O)NCCOCCOCC(=O)N[C@@H](CCC(=O)NCCOCCOCC(=O)NCCCCCCCCCCC(=O)O)C(=O)O)CSCC(=O)N[C@@H](Cc2ccccc2)C(=O)N[C@@H](Cc2ccc(O)cc2)C(=O)N[C@@H](CC(=O)O)C1=O [compound 2233] ({CH2CO}-FYD[NHexGly]Y[Nle]NRL[Ahp(2)]P[Tle]DC[AEEA][γGlu][AEEA][Aun]-OH; thioether N-14)	29.1
CCCCCCN1CC(=O)N[C@@H](Cc2ccc(O)cc2)C(=O)N[C@@H](CCCC)C(=O)N[C@@H](CC(N)=O)C(=O)N[C@@H](CCCNC(=N)N)C(=O)N[C@@H](CC(C)C)C(=O)N[C@@H](CCCCC)C(=O)N2CCC[C@H]2C(=O)N[C@@H](C(C)(C)C)C(=O)N[C@@H](C(C)C)C(=O)N[C@H](C(=O)NCCOCCOCC(=O)N[C@@H](CCC(=O)NCCOCCOCC(=O)NCCCCCCCCCCC(=O)O)C(=O)O)CSCC(=O)N[C@@H](Cc2ccccc2)C(=O)N[C@@H](Cc2ccc(O)cc2)C(=O)N[C@@H](CC(=O)O)C1=O [compound 2234] ({CH2CO}-FYD[NHexGly]Y[Nle]NRL[Ahp(2)]P[Tle]VC[AEEA][γGlu][AEEA][Aun]-OH; thioether N-14)	32.2
CCCCCCN1CC(=O)N[C@@H](Cc2ccc(O)cc2)C(=O)N[C@@H](CC(C)C)C(=O)N[C@@H](CC(N)=O)C(=O)N[C@@H](CCCNC(=N)N)C(=O)N[C@@H](CC(C)C)C(=O)N[C@@H](CCCCC)C(=O)N2CCC[C@H]2C(=O)N[C@@H](C(C)(C)C)C(=O)N[C@@H](CO)C(=O)N[C@H](C(=O)NCCOCCOCC(=O)N[C@@H](CCC(=O)NCCOCCOCC(=O)NCCCCCCCCCCC(=O)O)C(=O)O)CSCC(=O)N[C@@H](Cc2ccccc2)C(=O)N[C@@H](Cc2ccc(O)cc2)C(=O)N[C@@H](CC(=O)O)C1=O [compound 2235] ({CH2CO}-FYD[NHexGly]YLNRL[Ahp(2)]P[Tle]SC[AEEA][γGlu][AEEA][Aun]-OH; thioether N-14)	15.1
CCCCCCN1CC(=O)N[C@@H](Cc2ccc(O)cc2)C(=O)N[C@@H](CCCC)C(=O)N[C@@H](CC(N)=O)C(=O)N[C@@H](CCCNC(=N)N)C(=O)N(C)[C@@H](CCCC)C(=O)N[C@@H](CCCCC)C(=O)N2CCC[C@H]2C(=O)N[C@@H](C(C)(C)C)C(=O)N[C@@H](C(C)C)C(=O)N[C@H](C(=O)NCCOCCOCC(=O)N[C@@H](CCC(=O)NCCOCCOCC(=O)NCCCCCCCCCCC(=O)O)C(=O)O)CSCC(=O)N[C@@H](Cc2ccccc2)C(=O)N[C@@H](Cc2c[nH]c3ccccc23)C(=O)N[C@@H](CC(=O)O)C1=O [compound 2239] ({CH2CO}-FWD[NHexGly]Y[Nle]NR[NMeNle][Ahp(2)]P[Tle]VC[AEEA][γGlu][AEEA][Aun]-OH; thioether N-14)	48.6
CCCCCCN1CC(=O)N[C@@H](Cc2ccc(O)cc2)C(=O)N[C@@H](CC(C)C)C(=O)N[C@@H](CC(N)=O)C(=O)N[C@@H](CCCNC(=N)N)C(=O)N[C@@H](CC(C)C)C(=O)N[C@@H](CCCCC)C(=O)N2CCC[C@H]2C(=O)N[C@@H](C(C)(C)C)C(=O)N[C@@H](C(C)C)C(=O)N[C@H](C(=O)NCCOCCOCC(=O)N[C@@H](CCC(=O)NCCOCCOCC(=O)NCCCCCCCCCCC(=O)O)C(=O)O)CSCC(=O)N[C@@H](Cc2ccccc2)C(=O)N[C@@H](Cc2ccc(O)cc2)C(=O)N[C@@H](CC(=O)O)C1=O [compound 2240] ({CH2CO}-FYD[NHexGly]YLNRL[Ahp(2)]P[Tle]VC[AEEA][γGlu][AEEA][Aun]-OH; thioether N-14)	24.4
CCCCCCN1CC(=O)N[C@@H](Cc2ccc(O)cc2)C(=O)N[C@@H](CCCC)C(=O)N[C@@H](CC(N)=O)C(=O)N[C@@H](CCCNC(=N)N)C(=O)N2Cc3ccccc3C[C@H]2C(=O)N[C@@H](CCCCC)C(=O)N2CCC[C@H]2C(=O)N[C@@H](C(C)(C)C)C(=O)N[C@@H](CO)C(=O)N[C@H](C(=O)NCCOCCOCC(=O)N[C@@H](CCC(=O)NCCOCCOCC(=O)NCCCCCCCCCCC(=O)O)C(=O)O)CSCC(=O)N[C@@H](Cc2ccccc2)C(=O)N[C@@H](Cc2c[nH]c3ccccc23)C(=O)N[C@@H](CC(=O)O)C1=O [compound 2244] ({CH2CO}-FWD[NHexGly]Y[Nle]NR[Tic][Ahp(2)]P[Tle]SC[AEEA][γGlu][AEEA][Aun]-OH; thioether N-14)	32.2

The remaining lines, values ahead:

IC50 [nM]	Structure (SMILES)
23.7	CCCCCCN1CC(=O)N[C@@H](Cc2ccc(O)cc2)C(=O)N[C@@H](CC(C)C)C(=O)N[C@@H](CC(N)=O)C(=O)N[C@@H](CCCNC(=N)N)C(=O)N[C@@H](CC(C)C)C(=O)N[C@@H](CCCCC)C(=O)N2CCC[C@H]2C(=O)N[C@@H](C(C)(C)C)C(=O)N[C@@H](CC(=O)O)C(=O)N[C@H](C(=O)NCCOCCOCC(=O)N[C@@H](CCC(=O)NCCOCCOCC(=O)NCCCCCCCCCCC(=O)O)C(=O)O)CSCC(=O)N[C@@H](Cc2ccccc2)C(=O)N[C@@H](Cc2c[nH]c3ccccc23)C(=O)N[C@@H](CC(=O)O)C1=O [compound 2236] ({CH2CO}-FWD[NHexGly]YLNRL[Ahp(2)]P[Tle]DC[AEEA][γGlu][AEEA][Aun]-OH; thioether N-14)
36.2	CCCCCCN1CC(=O)N[C@@H](Cc2ccc(O)cc2)C(=O)N[C@@H](CCCC)C(=O)N[C@@H](CC(N)=O)C(=O)N[C@@H](CCCNC(=N)N)C(=O)N[C@@H](CC(C)C)C(=O)N[C@@H](CCCCC)C(=O)N2CCC[C@H]2C(=O)N[C@@H](C(C)(C)C)C(=O)N[C@@H](CC(=O)O)C(=O)N[C@H](C(=O)NCCOCCOCC(=O)N[C@@H](CCC(=O)NCCOCCOCC(=O)NCCCCCCCCCCC(=O)O)C(=O)O)CSCC(=O)N[C@@H](Cc2ccccc2)C(=O)N[C@@H](Cc2c[nH]c3ccccc23)C(=O)N[C@@H](CC(=O)O)C1=O [compound 2237] ({CH2CO}-FWD[NHexGly]Y[Nle]NRL[Ahp(2)]P[Tle]DC[AEEA][γGlu][AEEA][Aun]-OH; thioether N-14)
38	CCCCCCN1CC(=O)N[C@@H](Cc2ccc(O)cc2)C(=O)N[C@@H](CCCC)C(=O)N[C@@H](CC(N)=O)C(=O)N[C@@H](CCCNC(=N)N)C(=O)N[C@@H](CC(C)C)C(=O)N[C@@H](CCCCC)C(=O)N2CCC[C@H]2C(=O)N[C@@H](C(C)(C)C)C(=O)N[C@@H](CO)C(=O)N[C@H](C(=O)NCCOCCOCC(=O)N[C@@H](CCC(=O)NCCOCCOCC(=O)NCCCCCCCCCCC(=O)O)C(=O)O)CSCC(=O)N[C@@H](Cc2ccccc2)C(=O)N[C@@H](Cc2ccc(O)cc2)C(=O)N[C@@H](CC(=O)O)C1=O [compound 2238] ({CH2CO}-FYD[NHexGly]Y[Nle]NRL[Ahp(2)]P[Tle]SC[AEEA][γGlu][AEEA][Aun]-OH; thioether N-14)
38.9	CCCCCCN1CC(=O)N[C@@H](Cc2ccc(O)cc2)C(=O)N[C@@H](CCCC)C(=O)N[C@@H](CC(N)=O)C(=O)N[C@@H](CCCNC(=N)N)C(=O)N[C@@H](CC(C)C)C(=O)N[C@@H](CCCCC)C(=O)N2CCC[C@H]2C(=O)N[C@@H](C(C)(C)C)C(=O)N[C@@H](CO)C(=O)N[C@H](C(=O)NCCOCCOCC(=O)N[C@@H](CCC(=O)NCCOCCOCC(=O)NCCCCCCCCCCC(=O)O)C(=O)O)CSCC(=O)N[C@@H](Cc2ccccc2)C(=O)N[C@@H](Cc2c[nH]c3ccccc23)C(=O)N[C@@H](CC(=O)O)C1=O [compound 2243] ({CH2CO}-FWD[NHexGly]Y[Nle]NRL[Ahp(2)]P[Tle]SC[AEEA][γGlu][AEEA][Aun]-OH; thioether N-14)
27.8	CCCCCCN1CC(=O)N[C@@H](Cc2ccc(O)cc2)C(=O)N[C@@H](CCCC)C(=O)N[C@@H](CC(N)=O)C(=O)N[C@@H](CCCNC(=N)N)C(=O)N(C)[C@@H](CO)C(=O)N[C@@H](CCCCC)C(=O)N2CCC[C@H]2C(=O)N[C@@H](C(C)(C)C)C(=O)N[C@@H](CO)C(=O)N[C@H](C(=O)NCCOCCOCC(=O)N[C@@H](CCC(=O)NCCOCCOCC(=O)NCCCCCCCCCCC(=O)O)C(=O)O)CSCC(=O)N[C@@H](Cc2ccccc2)C(=O)N[C@@H](Cc2c[nH]c3ccccc23)C(=O)N[C@@H](CC(=O)O)C1=O [compound 2245] ({CH2CO}-FWD[NHexGly]Y[Nle]NR[NMeS][Ahp(2)]P[Tle]SC[AEEA][γGlu][AEEA][Aun]-OH; thioether N-14)
47	CCCCCCN1CC(=O)N[C@@H](Cc2ccc(O)cc2)C(=O)N[C@@H](CCCC)C(=O)N[C@@H](CC(N)=O)C(=O)N[C@@H](CCCNC(=N)N)C(=O)N(C)[C@@H](C(C)CC)C(=O)N[C@@H](CCCCC)C(=O)N2CCC[C@H]2C(=O)N[C@@H](C(C)(C)C)C(=O)N[C@@H](CO)C(=O)N[C@H](C(=O)NCCOCCOCC(=O)N[C@@H](CCC(=O)NCCOCCOCC(=O)NCCCCCCCCCCC(=O)O)C(=O)O)CSCC(=O)N[C@@H](Cc2ccccc2)C(=O)N[C@@H](Cc2c[nH]c3ccccc23)C(=O)N[C@@H](CC(=O)O)C1=O (stereo partly shown) [compound 2246] ({CH2CO}-FWD[NHexGly]Y[Nle]NR[NMeIle(3ξ)][Ahp(2)]P[Tle]SC[AEEA][γGlu][AEEA][Aun]-OH; thioether N-14)
